How the values were obtained:
Cytochrome P450 2C9 = Cytochrome P450 2C9 (Homo sapiens, UniProt P11712); conditions: bti-tn-5b1-4; also: in other assays of this panel Not Active means under 50% inhibition at 10 µM
[1] = molecular target: T1, Amine oxidase [flavin-containing] A (Homo sapiens, UniProt P21397); assay: DRUGMATRIX: Monoamine Oxidase MAO-A enzyme inhibition (substrate: Kynuramine); design: species or system BTI-TN-5B1-4; conditions: bti-tn-5b1-4; Not Active = under 50% inhibition at 10 µM
T1 sequence (P21397 whole entry): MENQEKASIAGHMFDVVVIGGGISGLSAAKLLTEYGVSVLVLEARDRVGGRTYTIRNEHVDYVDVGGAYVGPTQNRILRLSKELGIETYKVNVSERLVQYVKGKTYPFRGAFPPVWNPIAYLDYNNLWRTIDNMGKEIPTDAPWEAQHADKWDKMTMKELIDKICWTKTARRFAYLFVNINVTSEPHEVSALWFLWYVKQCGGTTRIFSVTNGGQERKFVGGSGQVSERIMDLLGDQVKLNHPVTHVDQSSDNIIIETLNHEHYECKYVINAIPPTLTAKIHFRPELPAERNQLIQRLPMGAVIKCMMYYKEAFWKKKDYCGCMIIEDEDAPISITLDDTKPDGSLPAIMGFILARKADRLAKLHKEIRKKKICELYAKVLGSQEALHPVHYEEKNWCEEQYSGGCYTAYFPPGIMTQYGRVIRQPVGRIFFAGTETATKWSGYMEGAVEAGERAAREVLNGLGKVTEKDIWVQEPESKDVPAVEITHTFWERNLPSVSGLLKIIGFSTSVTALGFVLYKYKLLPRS

[2] = molecular target: T2, Alpha-1B adrenergic receptor (Rattus norvegicus, UniProt P15823); assay: DRUGMATRIX: Alpha-1B adrenergic receptor radioligand binding (ligand: prazosin); assay type: cell membranes, Wistar, Liver, Membrane; conditions: Not Active = under 50% inhibition at 10 µM; for Ki: read-out: Ki
T2 sequence (P15823 whole entry): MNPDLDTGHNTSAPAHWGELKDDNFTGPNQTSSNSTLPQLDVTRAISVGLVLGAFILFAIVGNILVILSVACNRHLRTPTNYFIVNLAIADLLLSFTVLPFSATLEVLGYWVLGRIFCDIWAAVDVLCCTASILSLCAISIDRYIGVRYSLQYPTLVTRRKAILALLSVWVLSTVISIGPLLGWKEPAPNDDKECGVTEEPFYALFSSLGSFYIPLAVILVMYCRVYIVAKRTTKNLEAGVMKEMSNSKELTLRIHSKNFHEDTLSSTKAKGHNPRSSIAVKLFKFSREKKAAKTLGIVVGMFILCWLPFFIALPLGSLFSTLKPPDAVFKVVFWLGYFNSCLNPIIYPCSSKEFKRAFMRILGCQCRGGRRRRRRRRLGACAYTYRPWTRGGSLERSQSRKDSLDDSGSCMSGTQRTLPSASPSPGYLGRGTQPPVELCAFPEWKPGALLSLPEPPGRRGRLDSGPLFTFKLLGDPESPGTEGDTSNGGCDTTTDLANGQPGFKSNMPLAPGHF

[3] = molecular target: C-C chemokine receptor type 2 (Homo sapiens, UniProt P41597); assay type: cell membranes, CHO-K1, Membrane; conditions: cho-k1; also: in other assays of this panel Not Active means under 50% inhibition at 10 µM
Sequence of C-C chemokine receptor type 2 (P41597 whole entry): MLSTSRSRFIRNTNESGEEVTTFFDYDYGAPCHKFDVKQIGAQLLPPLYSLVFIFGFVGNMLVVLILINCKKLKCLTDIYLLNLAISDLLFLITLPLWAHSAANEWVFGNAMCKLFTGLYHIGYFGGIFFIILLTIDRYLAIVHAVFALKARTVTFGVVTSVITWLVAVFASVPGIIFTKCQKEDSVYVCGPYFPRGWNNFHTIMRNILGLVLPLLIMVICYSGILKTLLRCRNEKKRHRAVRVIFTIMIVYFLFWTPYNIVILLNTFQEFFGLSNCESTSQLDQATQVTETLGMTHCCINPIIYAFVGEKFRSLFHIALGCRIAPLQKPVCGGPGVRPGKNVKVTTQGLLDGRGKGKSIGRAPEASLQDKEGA

Insulin receptor = Insulin receptor (Rattus norvegicus, UniProt P15127); assay type: cell membranes, Wistar, Liver, Membrane; also: in other assays of this panel Not Active means under 50% inhibition at 10 µM
Sequence of Insulin receptor (P15127 27-759 limits assumed): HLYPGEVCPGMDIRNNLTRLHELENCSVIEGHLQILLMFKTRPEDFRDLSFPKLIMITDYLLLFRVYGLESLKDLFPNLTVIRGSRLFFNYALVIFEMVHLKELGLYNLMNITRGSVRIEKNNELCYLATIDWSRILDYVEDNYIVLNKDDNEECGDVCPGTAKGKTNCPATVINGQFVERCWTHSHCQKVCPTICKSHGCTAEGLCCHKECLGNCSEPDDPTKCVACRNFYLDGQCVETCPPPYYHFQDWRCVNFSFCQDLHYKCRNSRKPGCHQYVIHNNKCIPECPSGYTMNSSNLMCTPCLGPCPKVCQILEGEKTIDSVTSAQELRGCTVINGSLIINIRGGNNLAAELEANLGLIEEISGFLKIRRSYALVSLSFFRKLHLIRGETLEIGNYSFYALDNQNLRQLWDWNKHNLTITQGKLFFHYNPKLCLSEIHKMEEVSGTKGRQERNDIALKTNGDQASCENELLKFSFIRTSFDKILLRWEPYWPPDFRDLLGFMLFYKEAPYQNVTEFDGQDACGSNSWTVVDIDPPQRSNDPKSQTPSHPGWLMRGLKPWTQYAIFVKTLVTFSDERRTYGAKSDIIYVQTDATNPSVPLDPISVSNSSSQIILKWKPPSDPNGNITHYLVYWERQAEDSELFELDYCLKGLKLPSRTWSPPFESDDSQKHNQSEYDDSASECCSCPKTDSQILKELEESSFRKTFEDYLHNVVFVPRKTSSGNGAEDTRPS
Sequence of Insulin receptor (P15127 764-1383 limits assumed): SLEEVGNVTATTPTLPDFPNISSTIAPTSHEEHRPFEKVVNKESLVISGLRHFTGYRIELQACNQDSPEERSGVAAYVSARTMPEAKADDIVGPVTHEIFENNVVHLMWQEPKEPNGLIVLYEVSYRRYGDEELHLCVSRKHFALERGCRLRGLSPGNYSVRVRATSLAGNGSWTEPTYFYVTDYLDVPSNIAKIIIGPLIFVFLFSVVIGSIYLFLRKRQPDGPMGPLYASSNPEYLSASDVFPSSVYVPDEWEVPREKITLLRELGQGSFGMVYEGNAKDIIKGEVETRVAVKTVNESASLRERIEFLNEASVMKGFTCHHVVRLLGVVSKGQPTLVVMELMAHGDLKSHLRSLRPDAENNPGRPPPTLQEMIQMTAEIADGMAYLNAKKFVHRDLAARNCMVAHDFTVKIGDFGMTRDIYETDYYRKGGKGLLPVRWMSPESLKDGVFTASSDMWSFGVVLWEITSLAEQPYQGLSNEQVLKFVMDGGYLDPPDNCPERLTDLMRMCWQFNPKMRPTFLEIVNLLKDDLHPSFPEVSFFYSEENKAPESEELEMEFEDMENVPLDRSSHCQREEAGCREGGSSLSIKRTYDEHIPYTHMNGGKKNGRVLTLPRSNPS

[4] = DRUGMATRIX: Purinergic P2X radioligand binding (ligand: [3H] alpha, beta-Methylene-ATP); assay type: cell membranes, Oryctolagus cuniculus, New Zealand albino, Urinary bladder, Membrane; conditions: Not Active = under 50% inhibition at 10 µM
[5] = molecular target: T3, Muscarinic acetylcholine receptor M5 (Homo sapiens, UniProt P08912); assay type: cell membranes, CHO-K1, Membrane; also: in other assays of this panel Not Active means under 50% inhibition at 10 µM
T3 sequence (P08912 whole entry): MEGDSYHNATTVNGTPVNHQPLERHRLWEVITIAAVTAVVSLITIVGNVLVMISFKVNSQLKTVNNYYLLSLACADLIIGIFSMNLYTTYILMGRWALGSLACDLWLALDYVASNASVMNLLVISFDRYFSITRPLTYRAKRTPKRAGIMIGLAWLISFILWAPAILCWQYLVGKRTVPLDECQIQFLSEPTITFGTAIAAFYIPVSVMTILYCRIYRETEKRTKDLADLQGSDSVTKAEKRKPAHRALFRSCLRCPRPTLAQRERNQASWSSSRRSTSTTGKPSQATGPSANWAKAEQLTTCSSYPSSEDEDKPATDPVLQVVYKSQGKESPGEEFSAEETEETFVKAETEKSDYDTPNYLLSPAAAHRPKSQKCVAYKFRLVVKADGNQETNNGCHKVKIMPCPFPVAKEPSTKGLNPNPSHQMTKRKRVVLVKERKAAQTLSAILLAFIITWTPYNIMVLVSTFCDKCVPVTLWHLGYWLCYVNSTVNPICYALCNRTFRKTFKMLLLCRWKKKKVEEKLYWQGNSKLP

[6] = DRUGMATRIX: Calcium Channel Type L, Phenylalkylamine radioligand binding (ligand: [3H] (-)-Desmethoxyverapamil (D-888)); assay type: cell membranes, Rattus norvegicus, Wistar, Brain, Membrane; conditions: Not Active = under 50% inhibition at 10 µM

Sequence of Cytochrome P450 2C9 (P11712 whole entry): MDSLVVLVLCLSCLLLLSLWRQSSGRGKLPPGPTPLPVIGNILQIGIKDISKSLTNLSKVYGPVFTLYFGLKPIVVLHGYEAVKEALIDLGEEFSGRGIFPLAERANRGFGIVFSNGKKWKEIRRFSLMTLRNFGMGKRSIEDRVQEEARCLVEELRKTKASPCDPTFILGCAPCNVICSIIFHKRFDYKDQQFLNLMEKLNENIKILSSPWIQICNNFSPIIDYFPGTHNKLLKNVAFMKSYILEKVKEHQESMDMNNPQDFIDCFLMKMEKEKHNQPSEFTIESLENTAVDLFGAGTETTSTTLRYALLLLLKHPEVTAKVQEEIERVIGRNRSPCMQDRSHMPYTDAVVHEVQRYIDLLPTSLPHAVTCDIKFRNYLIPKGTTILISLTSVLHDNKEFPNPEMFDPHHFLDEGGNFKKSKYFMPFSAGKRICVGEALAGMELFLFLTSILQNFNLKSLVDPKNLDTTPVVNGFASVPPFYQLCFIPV

| Compound | IC50 (Cytochrome P450 2C9) | Ki (Cytochrome P450 2C9) | IC50 [1] | IC50 [2] | IC50 [3] | IC50 (Insulin receptor) | IC50 [4] | Ki [4] | IC50 ([5]; cho-k1) | IC50 [6] | Ki [6] | IC50 ([5]; read-out: IC50) [nM] | Ki ([5]; read-out: Ki) [nM] | IC50 ([2]; read-out: IC50) [nM] | Ki [2] [nM] | IC50 ([6]; read-out: IC50) [nM] | Ki ([6]; read-out: Ki) [nM] |
| --- | --- | --- | --- | --- | --- | --- | --- | --- | --- | --- | --- | --- | --- | --- | --- | --- | --- |
| CC1=C(CC(=O)O)c2cc(F)ccc2/C1=C\c1ccc([S+](C)[O-])cc1 (stereo not drawn) | Not Active | Not Active | Not Active | Not Active | Not Active | Not Active | Not Active | Not Active | Not Active | Not Active | Not Active |  |  |  |  |  |  |
| N[C@H](CSC(=S)NCc1ccccc1)C(=O)O | Not Active | Not Active | Not Active | Not Active | Not Active | Not Active | Not Active | Not Active | Not Active | Not Active | Not Active |  |  |  |  |  |  |
| CC(=O)N[C@@H]1[C@H](Oc2c3cc4cc2Oc2ccc(cc2Cl)[C@@H](O[C@@H]2O[C@@H](CO)[C@@H](O)[C@H](O)[C@@H]2NC(C)=O)[C@@H]2NC(=O)[C@H](NC(=O)[C@@H]4NC(=O)[C@H]4NC(=O)[C@@H](Cc5ccc(c(Cl)c5)O3)NC(=O)[C@H](N)c3ccc(O)c(c3)Oc3cc(O)cc4c3)c3ccc(O)c(c3)-c3c(O[C@H]4O[C@H](CO)[C@@H](O)[C@@H](O)[C@@H]4O)cc(O)cc3[C@@H](C(=O)O)NC2=O)O[C@@H](CO)[C@@H](O)[C@@H]1O | Not Active | Not Active | Not Active | Not Active | Not Active | Not Active | Not Active | Not Active | Not Active | Not Active | Not Active |  |  |  |  |  |  |
| Clc1ccc2c(c1)C(N1CCNCC1)=Nc1ccccc1O2 [AMOXAPINE] | Not Active | Not Active | Not Active |  | Not Active | Not Active |  |  |  |  |  |  |  |  |  |  |  |
| COc1cc2c(c(OC)c1OC)-c1ccc(OC)c(=O)cc1[C@@H](NC(C)=O)CC2 [COLCHICINE] | Not Active | Not Active | Not Active |  | Not Active | Not Active |  |  | Not Active |  |  |  |  |  |  |  |  |
| CN1CCC(=C2c3ccccc3C=Cc3ccccc32)CC1 [CYPROHEPTADINE] | Not Active | Not Active | Not Active |  | Not Active | Not Active |  |  |  |  |  | 3.83 | 2.75 |  |  |  |  |
| CC/C(=C(/CC)c1ccc(O)cc1)c1ccc(O)cc1 [DIETHYLSTILBESTROL] | Not Active | Not Active | Not Active |  | Not Active | Not Active |  |  |  |  |  |  |  |  |  |  |  |
| CC(=O)N1CCN(c2ccc(OCC3COC(Cn4ccnc4)(c4ccc(Cl)cc4Cl)O3)cc2)CC1 (stereo not drawn) [KETOCONAZOLE] | Not Active | Not Active | Not Active |  | Not Active | Not Active | Not Active | Not Active | Not Active | Not Active | Not Active |  |  | 22900 | 12700 |  |  |
| C=CCN1CC[C@]23c4c5ccc(O)c4O[C@H]2C(=O)CC[C@@]3(O)[C@H]1C5 [NALOXONE] |  |  | Not Active |  | Not Active | Not Active |  |  | Not Active |  |  |  |  |  |  |  |  |
| COCCOC(=O)C1=C(C)NC(C)=C(C(=O)OC(C)C)C1c1cccc([N+](=O)[O-])c1 (stereo not drawn) [NIMODIPINE] |  |  | Not Active | Not Active | Not Active | Not Active | Not Active | Not Active | Not Active | Not Active | Not Active |  |  |  |  |  |  |
| CC(C)NCC(O)COc1cccc2ccccc12 (stereo not drawn) [PROPRANOLOL] | Not Active | Not Active | Not Active |  | Not Active | Not Active |  |  | Not Active |  |  |  |  |  |  |  |  |
| COCCCOc1ccnc(C[S+]([O-])c2nc3ccccc3[nH]2)c1C (stereo not drawn) [RABEPRAZOLE] | Not Active | Not Active | Not Active | Not Active | Not Active | Not Active | Not Active | Not Active | Not Active | Not Active | Not Active |  |  |  |  |  |  |
| O=C(c1ccc(OCCN2CCCCC2)cc1)c1c(-c2ccc(O)cc2)sc2cc(O)ccc12 [RALOXIFENE] |  |  | Not Active |  | Not Active | Not Active | Not Active | Not Active | Not Active |  |  |  |  | 2690 | 1490 | 148 | 144 |
| CNC(=C[N+](=O)[O-])NCCSCc1ccc(CN(C)C)o1 [RANITIDINE] | Not Active | Not Active | Not Active | Not Active | Not Active | Not Active | Not Active | Not Active | Not Active | Not Active | Not Active |  |  |  |  |  |  |
| CO[C@H]1/C=C/O[C@@]2(C)Oc3c(C)c(O)c4c(c3C2=O)C2=NC3(CCN(CC(C)C)CC3)NC2=C(NC(=O)/C(C)=C\C=C\[C@H](C)[C@H](O)[C@@H](C)[C@@H](O)[C@@H](C)[C@H](OC(C)=O)[C@@H]1C)C4=O [RIFABUTIN] | Not Active | Not Active | Not Active | Not Active | Not Active | Not Active | Not Active | Not Active | Not Active | Not Active | Not Active |  |  |  |  |  |  |
| CC(C)c1nc(CN(C)C(=O)N[C@H](C(=O)N[C@@H](Cc2ccccc2)C[C@H](O)[C@H](Cc2ccccc2)NC(=O)OCc2cncs2)C(C)C)cs1 [RITONAVIR] |  |  | Not Active | Not Active | Not Active | Not Active | Not Active | Not Active | Not Active |  |  |  |  |  |  |  |  |
| CC(C)CC(N(C)C)C1(c2ccc(Cl)cc2)CCC1 (stereo not drawn) [SIBUTRAMINE] | Not Active | Not Active | Not Active | Not Active | Not Active | Not Active | Not Active | Not Active | Not Active |  |  |  |  |  |  | 2720 | 2650 |
| [H]/N=C(/N)N[C@H]1[C@H](O)[C@@H](O)[C@H](O[C@@H]2O[C@@H](C)[C@](O)(C=O)[C@H]2O[C@@H]2O[C@@H](CO)[C@H](O)[C@@H](O)[C@@H]2NC)[C@@H](N/C(N)=N\[H])[C@@H]1O [STREPTOMYCIN] | Not Active | Not Active | Not Active | Not Active | Not Active | Not Active | Not Active | Not Active | Not Active | Not Active | Not Active |  |  |  |  |  |  |
| COc1cc(NS(=O)(=O)c2ccc(N)cc2)nc(OC)n1 [SULFADIMETHOXINE] |  |  | Not Active | Not Active | Not Active | Not Active | Not Active | Not Active | Not Active | Not Active | Not Active |  |  |  |  |  |  |
| CC(C)(C)c1ccc(C(O)CCCN2CCC(C(O)(c3ccccc3)c3ccccc3)CC2)cc1 (stereo not drawn) [TERFENADINE] |  |  | Not Active |  | Not Active | Not Active | Not Active | Not Active | Not Active |  |  |  |  | 3340 | 1850 | 624 | 607 |

Reference: ChEMBL document CHEMBL1909046, “DrugMatrix in vitro pharmacology data”
